{"source": "the supplement of paper PMC10307832", "test_in_all_cases": "relative viability (nuclei count vs DMSO), 5 days (fraction); higher = more cells survive", "key": {"NCI-H1793": {"test_system": "NCI-H1793", "how_it_was_run": "(§1)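 Values are medians from duplicate plates. Each reflects relative viability, defined as the nuclei count of treated wells over that of vehicle wells. Lung cancer cell lines in 1536-well plates were pin-tool dosed one day after seeding with one drug alone or with a fixed anchor-drug dose plus five library-drug doses (not always all listed) in √10 steps, then fixed, stained and imaged at 4× after 5 days.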"}, "LCLC-97TM1": {"test_system": "LCLC-97TM1", "how_it_was_run": "as §1"}, "NCI-H1993": {"test_system": "NCI-H1993", "how_it_was_run": "as §1"}, "PC-3 [JPC-3]": {"test_system": "PC-3 [JPC-3]", "how_it_was_run": "as §1"}, "NCI-H2009": {"test_system": "NCI-H2009", "how_it_was_run": "as §1"}, "NCI-H520": {"test_system": "NCI-H520", "how_it_was_run": "as §1"}, "NCI-H1755": {"test_system": "NCI-H1755", "how_it_was_run": "as §1"}, "NCI-H647": {"test_system": "NCI-H647", "how_it_was_run": "as §1"}, "NCI-H460": {"test_system": "NCI-H460", "how_it_was_run": "as §1"}, "SW 1573": {"test_system": "SW 1573", "how_it_was_run": "as §1"}, "SK-LU-1": {"test_system": "SK-LU-1", "how_it_was_run": "as §1"}, "NCI-H1944": {"test_system": "NCI-H1944", "how_it_was_run": "as §1"}, "ABC-1": {"test_system": "ABC-1", "how_it_was_run": "as §1"}, "EMC-BAC-2": {"test_system": "EMC-BAC-2", "how_it_was_run": "as §1"}, "NCI-H441": {"test_system": "NCI-H441", "how_it_was_run": "as §1"}, "NCI-H2126": {"test_system": "NCI-H2126", "how_it_was_run": "as §1"}, "NCI-H2347": {"test_system": "NCI-H2347", "how_it_was_run": "as §1"}, "PC-14": {"test_system": "PC-14", "how_it_was_run": "as §1"}, "NCI-H1666": {"test_system": "NCI-H1666", "how_it_was_run": "as §1"}, "NCI-H2170": {"test_system": "NCI-H2170", "how_it_was_run": "as §1"}, "NCI-H1975": {"test_system": "NCI-H1975", "how_it_was_run": "as §1"}, "NCI-H1355": {"test_system": "NCI-H1355", "how_it_was_run": "as §1"}, "NCI-H727": {"test_system": "NCI-H727", "how_it_was_run": "as §1"}}, "data": [{"smiles": "Cc1cnc(-c2cnc(NCCNc3ccc(C#N)cn3)nc2-c2ccc(Cl)cc2Cl)[nH]1", "note": "+ Nc1ncn([C@H]2C[C@H](O)[C@@H](CO)O2)c(=O)n1 [Decitabine] (partner 2 µM)", "values": [{"measurement": "relative viability", "setting": "NCI-H1793; first compound 0.08 µM", "result": 0.494}, {"measurement": "relative viability", "setting": "NCI-H1793; first compound 0.253 µM", "result": 0.514}, {"measurement": "relative viability", "setting": "NCI-H1793; first compound 0.8 µM", "result": 0.583}, {"measurement": "relative viability", "setting": "NCI-H1793; first compound 2.53 µM", "result": 0.541}, {"measurement": "relative viability", "setting": "LCLC-97TM1; first compound 0.08 µM", "result": 0.213}, {"measurement": "relative viability", "setting": "LCLC-97TM1; first compound 0.253 µM", "result": 0.248}, {"measurement": "relative viability", "setting": "LCLC-97TM1; first compound 0.8 µM", "result": 0.235}, {"measurement": "relative viability", "setting": "LCLC-97TM1; first compound 2.53 µM", "result": 0.227}, {"measurement": "relative viability", "setting": "NCI-H1993; first compound 0.08 µM", "result": 0.744}, {"measurement": "relative viability", "setting": "NCI-H1993; first compound 0.253 µM", "result": 0.584}, {"measurement": "relative viability", "setting": "NCI-H1993; first compound 0.8 µM", "result": 0.628}, {"measurement": "relative viability", "setting": "NCI-H1993; first compound 2.53 µM", "result": 0.591}, {"measurement": "relative viability", "setting": "PC-3 [JPC-3]; first compound 0.08 µM", "result": 0.777}, {"measurement": "relative viability", "setting": "PC-3 [JPC-3]; first compound 0.253 µM", "result": 0.825}, {"measurement": "relative viability", "setting": "PC-3 [JPC-3]; first compound 0.8 µM", "result": 0.785}, {"measurement": "relative viability", "setting": "PC-3 [JPC-3]; first compound 2.53 µM", "result": 0.791}, {"measurement": "relative viability", "setting": "NCI-H2009; first compound 0.08 µM", "result": 0.426}, {"measurement": "relative viability", "setting": "NCI-H2009; first compound 0.253 µM", "result": 0.37}, {"measurement": "relative viability", "setting": "NCI-H2009; first compound 0.8 µM", "result": 0.404}, {"measurement": "relative viability", "setting": "NCI-H2009; first compound 2.53 µM", "result": 0.395}, {"measurement": "relative viability", "setting": "NCI-H520; first compound 0.08 µM", "result": 0.531}, {"measurement": "relative viability", "setting": "NCI-H520; first compound 0.253 µM", "result": 0.504}, {"measurement": "relative viability", "setting": "NCI-H520; first compound 0.8 µM", "result": 0.563}, {"measurement": "relative viability", "setting": "NCI-H520; first compound 2.53 µM", "result": 0.546}, {"measurement": "relative viability", "setting": "NCI-H1755; first compound 0.08 µM", "result": 0.723}, {"measurement": "relative viability", "setting": "NCI-H1755; first compound 0.253 µM", "result": 0.726}, {"measurement": "relative viability", "setting": "NCI-H1755; first compound 0.8 µM", "result": 0.771}, {"measurement": "relative viability", "setting": "NCI-H1755; first compound 2.53 µM", "result": 0.704}, {"measurement": "relative viability", "setting": "NCI-H647; first compound 0.08 µM", "result": 0.381}, {"measurement": "relative viability", "setting": "NCI-H647; first compound 0.253 µM", "result": 0.36}, {"measurement": "relative viability", "setting": "NCI-H647; first compound 0.8 µM", "result": 0.349}, {"measurement": "relative viability", "setting": "NCI-H647; first compound 2.53 µM", "result": 0.297}, {"measurement": "relative viability", "setting": "NCI-H460; first compound 0.08 µM", "result": 0.537}, {"measurement": "relative viability", "setting": "NCI-H460; first compound 0.253 µM", "result": 0.454}, {"measurement": "relative viability", "setting": "NCI-H460; first compound 0.8 µM", "result": 0.54}, {"measurement": "relative viability", "setting": "NCI-H460; first compound 2.53 µM", "result": 0.488}, {"measurement": "relative viability", "setting": "SW 1573; first compound 0.08 µM", "result": 0.583}, {"measurement": "relative viability", "setting": "SW 1573; first compound 0.253 µM", "result": 0.457}, {"measurement": "relative viability", "setting": "SW 1573; first compound 0.8 µM", "result": 0.474}, {"measurement": "relative viability", "setting": "SW 1573; first compound 2.53 µM", "result": 0.354}, {"measurement": "relative viability", "setting": "SK-LU-1; first compound 0.08 µM", "result": 0.645}, {"measurement": "relative viability", "setting": "SK-LU-1; first compound 0.253 µM", "result": 0.478}, {"measurement": "relative viability", "setting": "SK-LU-1; first compound 0.8 µM", "result": 0.688}, {"measurement": "relative viability", "setting": "SK-LU-1; first compound 2.53 µM", "result": 0.711}, {"measurement": "relative viability", "setting": "NCI-H1944; first compound 0.08 µM", "result": 0.476}, {"measurement": "relative viability", "setting": "NCI-H1944; first compound 0.8 µM", "result": 0.5}, {"measurement": "relative viability", "setting": "NCI-H1944; first compound 2.53 µM", "result": 0.402}, {"measurement": "relative viability", "setting": "ABC-1; first compound 0.08 µM", "result": 1.27}, {"measurement": "relative viability", "setting": "ABC-1; first compound 0.253 µM", "result": 0.871}, {"measurement": "relative viability", "setting": "ABC-1; first compound 0.8 µM", "result": 1.08}, {"measurement": "relative viability", "setting": "ABC-1; first compound 2.53 µM", "result": 0.918}, {"measurement": "relative viability", "setting": "EMC-BAC-2; first compound 0.08 µM", "result": 1.15}, {"measurement": "relative viability", "setting": "EMC-BAC-2; first compound 0.253 µM", "result": 0.911}, {"measurement": "relative viability", "setting": "EMC-BAC-2; first compound 0.8 µM", "result": 0.912}, {"measurement": "relative viability", "setting": "EMC-BAC-2; first compound 2.53 µM", "result": 0.995}, {"measurement": "relative viability", "setting": "NCI-H441; first compound 0.08 µM", "result": 0.238}, {"measurement": "relative viability", "setting": "NCI-H441; first compound 0.8 µM", "result": 0.251}, {"measurement": "relative viability", "setting": "NCI-H441; first compound 2.53 µM", "result": 0.255}, {"measurement": "relative viability", "setting": "NCI-H2126; first compound 0.08 µM", "result": 0.585}, {"measurement": "relative viability", "setting": "NCI-H2126; first compound 0.253 µM", "result": 0.602}, {"measurement": "relative viability", "setting": "NCI-H2126; first compound 0.8 µM", "result": 0.539}, {"measurement": "relative viability", "setting": "NCI-H2126; first compound 2.53 µM", "result": 0.58}, {"measurement": "relative viability", "setting": "NCI-H2347; first compound 0.08 µM", "result": 0.708}, {"measurement": "relative viability", "setting": "NCI-H2347; first compound 0.253 µM", "result": 0.55}, {"measurement": "relative viability", "setting": "NCI-H2347; first compound 0.8 µM", "result": 0.65}, {"measurement": "relative viability", "setting": "NCI-H2347; first compound 2.53 µM", "result": 0.65}, {"measurement": "relative viability", "setting": "PC-14; first compound 0.08 µM", "result": 0.232}, {"measurement": "relative viability", "setting": "PC-14; first compound 0.253 µM", "result": 0.171}, {"measurement": "relative viability", "setting": "PC-14; first compound 0.8 µM", "result": 0.217}, {"measurement": "relative viability", "setting": "PC-14; first compound 2.53 µM", "result": 0.234}, {"measurement": "relative viability", "setting": "NCI-H1666; first compound 0.08 µM", "result": 0.759}, {"measurement": "relative viability", "setting": "NCI-H1666; first compound 0.253 µM", "result": 0.713}, {"measurement": "relative viability", "setting": "NCI-H1666; first compound 0.8 µM", "result": 0.618}, {"measurement": "relative viability", "setting": "NCI-H1666; first compound 2.53 µM", "result": 0.844}, {"measurement": "relative viability", "setting": "NCI-H2170; first compound 0.08 µM", "result": 0.481}, {"measurement": "relative viability", "setting": "NCI-H2170; first compound 0.8 µM", "result": 0.484}, {"measurement": "relative viability", "setting": "NCI-H2170; first compound 2.53 µM", "result": 0.406}, {"measurement": "relative viability", "setting": "NCI-H1975; first compound 0.08 µM", "result": 0.349}, {"measurement": "relative viability", "setting": "NCI-H1975; first compound 0.253 µM", "result": 0.361}, {"measurement": "relative viability", "setting": "NCI-H1975; first compound 0.8 µM", "result": 0.409}, {"measurement": "relative viability", "setting": "NCI-H1975; first compound 2.53 µM", "result": 0.314}, {"measurement": "relative viability", "setting": "NCI-H1355; first compound 0.08 µM", "result": 0.354}, {"measurement": "relative viability", "setting": "NCI-H1355; first compound 0.253 µM", "result": 0.316}, {"measurement": "relative viability", "setting": "NCI-H1355; first compound 0.8 µM", "result": 0.36}, {"measurement": "relative viability", "setting": "NCI-H1355; first compound 2.53 µM", "result": 0.371}, {"measurement": "relative viability", "setting": "NCI-H727; first compound 0.08 µM", "result": 0.867}, {"measurement": "relative viability", "setting": "NCI-H727; first compound 0.253 µM", "result": 0.937}, {"measurement": "relative viability", "setting": "NCI-H727; first compound 0.8 µM", "result": 0.838}, {"measurement": "relative viability", "setting": "NCI-H727; first compound 2.53 µM", "result": 0.766}]}]}
